Patent publication US11084800B2 (Achillion Pharmaceuticals, Inc., priority 2017, dated 2021)

Biological target: Human Factor D (Homo sapiens (Human), UniProt P00746)
Assay: Human Factor D Assay
Format: biochemical
Details: Factor D inhibition, assay of Example 10; read-out: IC5 (Stars)
How it was run: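 Serum-purified Factor D (80 nM final) preincubated 5 min at room temperature with compound in 50 mM Tris, 1 M NaCl, pH 7.5. Z-L-Lys-SBz and DTNB added at 100 μM each; A405 followed every 30 s for 30 min. IC50 from nonlinear regression of rates versus concentration.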

Chain of Human Factor D (P00746 26-253): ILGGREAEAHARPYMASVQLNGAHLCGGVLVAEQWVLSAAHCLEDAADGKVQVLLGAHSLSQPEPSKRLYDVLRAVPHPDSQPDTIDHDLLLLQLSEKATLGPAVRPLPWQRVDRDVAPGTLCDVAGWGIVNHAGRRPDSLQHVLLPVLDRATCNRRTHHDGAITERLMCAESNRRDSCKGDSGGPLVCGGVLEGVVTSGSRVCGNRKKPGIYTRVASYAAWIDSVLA

| Compound | IC50 [µM] |
| --- | --- |
| CC(=O)c1nn(CC(=O)N2[C@H]3C[C@@]3(CC#N)C[C@H]2C(=O)Nc2nc(Br)ccc2C)c2cnc(-c3cnc(C)nc3)cc12 [Compound 239, (1S,3S,5S)-2-(2-(3-acetyl-5-(2-methylpyrimidin-5-yl)-1H-pyrazolo[3,4-c]pyridin-1-yl)acetyl)-N-(6-bromo-3-methylpyridin-2-yl)-5-(cyanomethyl)-2-azabicyclo[3.1.0]hexane-3-carboxamide] | 1 to 10 |
| CC(=O)c1nn(CC(=O)N2[C@@H](C(=O)Nc3nc(Br)ccc3C)C[C@]3(CC#N)C[C@H]23)c2cnc(-c3cnc(C)nc3)cc12 [Compound 240, (1S,3R,5S)-2-(2-(3-acetyl-5-(2-methylpyrimidin-5-yl)-1H-pyrazolo[3,4-c]pyridin-1-yl)acetyl)-N-(6-bromo-3-methylpyridin-2-yl)-5-(cyanomethyl)-2-azabicyclo[3.1.0]hexane-3-carboxamide] | 1 to 10 |
| CC(=O)c1nn(CC(=O)N2C[C@H]3C[C@H]3[C@H]2C(=O)Nc2nc(Br)ccc2C)c2c(C)nc(-c3cnc(C)nc3)cc12 [Compound 241, (1R,2S,5S)-3-(2-(3-acetyl-7-methyl-5-(2-methylpyrimidin-5-yl)-1H-pyrazolo[3,4-c]pyridin-1-yl)acetyl)-N-(6-bromo-3-methylpyridin-2-yl)-3-azabicyclo[3.1.0]hexane-2-carboxamide] | < 1 |
| CC(=O)c1nn(CC(=O)N2[C@H](C(=O)Nc3nc(Br)ccc3C)C[C@@]3(CN4C[C@H]5CCC[C@H]5C4)C[C@@H]23)c2cnc(-c3cnc(C)nc3)cc12 [Compound 245, (1R,3S,5R)-2-(2-(3-acetyl-5-(2-methylpyrimidin-5-yl)-1H-pyrazolo[3,4-c]pyridin-1-yl)acetyl)-N-(6-bromo-3-methylpyridin-2-yl)-5-(((3aR,6a5)-hexahydrocyclopenta [c]pyrrol-2(1H)-yl)methyl)-2-azabicyclo[3.1.0]hexane-3-carboxamide] | < 1 |
| CC(=O)c1nn(CC(=O)N2[C@H](C(=O)Nc3nc(Br)ccc3C)C[C@@]3(CN4CC5(CCCC5)C4)C[C@@H]23)c2cnc(-c3cnc(C)nc3)cc12 [Compound 246, (1R,3S,5R)-5-(2-azaspiro[3.4]octan-2-ylmethyl)-2-(2-(3-acetyl-5-(2-methylpyrimidin-5-yl)-1H-pyrazolo[3,4-c]pyridin-1-yl)acetyl)-N-(6-bromo-3-methylpyridin-2-yl)-2-azabicyclo[3.1.0]hexane-3-carboxamide] | < 1 |
| CC(=O)c1nn(CC(=O)N2[C@H](C(=O)Nc3nc(Br)c(F)cc3C)C[C@@]3(CC#N)C[C@@H]23)c2cnc(-c3cnc(C)nc3)cc12 [Compound 249, (1R,3S,5R)-2-(2-(3-acetyl-5-(2-methylpyrimidin-5-yl)-1H-pyrazolo[3,4-c]pyridin-1-yl)acetyl)-N-(6-bromo-5-fluoro-3-methylpyridin-2-yl)-5-(cyanomethyl)-2-azabicyclo[3.1.0]hexane-3-carboxamide] | < 1 |
| CC(=O)c1nn(CC(=O)N2[C@H](C(=O)Nc3nc(Br)c(F)cc3C)C[C@@]3(CN4CC(F)(F)C4)C[C@@H]23)c2cnc(-c3cnc(C)nc3)cc12 [Compound 250, (1R,3S,5R)-2-(2-(3-acetyl-5-(2-methylpyrimidin-5-yl)-1H-pyrazolo[3,4-c]pyridin-1-yl)acetyl)-N-(6-bromo-5-fluoro-3-methylpyridin-2-yl)-5-((3,3-difluoroazetidin-1-yl)methyl)-2-azabicyclo[3.1.0]hexane-3-carboxomide] | < 1 |
| CC(=O)c1nn(CC(=O)N2[C@H](C(=O)Nc3nc(Br)c(F)cc3C)C[C@@]3(CN(C)C)C[C@@H]23)c2c(C)cc(-c3cnc(C)nc3)cc12 [Compound 263, (1R,3S,5R)-2-(2-(3-acetyl-7-methyl-5-(2-methylpyrimidin-5-yl)-1H-indazol-1-yl)acetyl)-N-(6-bromo-5-fluoro-3-methylpyridin-2-yl)-5-((dimethylamino)methyl)-2-azabicyclo[3.1.0] hexane-3-carboxamide] | < 1 |

Results, then the compound that gave them:

| IC50 [µM] | Compound |
| --- | --- |
| < 1 | CC(=O)c1nn(CC(=O)N2[C@H](C(=O)Nc3nc(Br)c(F)cc3C)C[C@@]3(CF)C[C@@H]23)c2cnc(-c3cnc(C)nc3)cc12 [Compound 251] |
| < 1 | CC(=O)c1nn(CC(=O)N2[C@H](C(=O)Nc3nc(Br)c(F)cc3C)C[C@@]3(CN4CC5(CCCC5)C4)C[C@@H]23)c2cnc(-c3cnc(C)nc3)cc12 [Compound 252, (1R,3S,5R)-5-(2-azaspirp[3.4]octan-2-ylmethyl)-2-(2-(3-acetyl-5-(2-methylpyrimidin-5-yl)-1H-pyrazole[3,4-c]pyridin-1-yl)acetyl)-N-(6-bromo-5-fluoro-3-methylpyridin-2-yl)-2-azabicyclo[3.1.0]hexane-3-carboxomide] |
| < 1 | CC(=O)c1nn(CC(=O)N2[C@H](C(=O)Nc3nc(Br)c(F)cc3C)C[C@@]3(CN4C[C@H]5CCC[C@H]5C4)C[C@@H]23)c2cnc(-c3cnc(C)nc3)cc12 [Compound 253, (1R,3S,5R)-2-(2-(3-acetyl-5-(2-methylpyrimidin-5-yl)-1H-pyrazolo[3,4-c]pyridin-1-yl)acetyl)-N-(6-bromo-5-fluoro-3-methylpyridin-2-yl)-5-(((3aR,6aS)-hexahydrocyclopenta [c]pyrrol-2(1H)-yl)methyl)-2-azabicyclo[3.1.0]hexane-3-carboxamide] |
| < 1 | CC(=O)c1nn(CC(=O)N2[C@H](C(=O)Nc3nc(Br)c(F)cc3C)C[C@@]3(C)C[C@@H]23)c2cnc(-c3cnc(C)[n+]([O-])c3)cc12 [Compound 254, 5-(3-acetyl-1-(2-((1R,3S,5R)-3-((6-bromo-5-fluoro-3-methylpyridin-2-yl)carbamoyl)-5-methyl-2-azabicyclo[3.1.0]hexane-2-yl)-2-oxoethyl)-1H-pyrazolo[3,4-c]pyridin-5-yl)-2-methylpyrimidine 1-oxide] |
| < 1 | CC(=O)c1nn(CC(=O)N2[C@H](C(=O)Nc3nc(OC(F)(F)F)ccc3C)C[C@@]3(C)C[C@@H]23)c2cnc(-c3cnc(C)nc3)cc12 [Compound 256] |
| < 1 | CC(=O)c1nn(CC(=O)N2[C@H](C(=O)Nc3nc(Br)ccc3CC(C)C)C[C@@]3(C)C[C@@H]23)c2cnc(-c3cnc(C)nc3)cc12 [Compound 258, (1R,3S,5R)-2-(2-(3-acetyl-5-(2-methylpyrimidin-5-yl)-1H-pyrazolo[3,4-c]pyridin-1-yl)acetyl)-N-(6-bromo-3-isobutylpyridin-2-yl)-5-methyl-2-azabicyclo[3.1.0]hexane-3-carboxamide] |
| < 1 | CC(=O)c1nn(CC(=O)N2[C@H](C(=O)Nc3nc(Br)ccc3C)C[C@@]3(CN(CCO)CCO)C[C@@H]23)c2cnc(-c3cnc(C)nc3)cc12 [Compound 262, (1R,3S,5R)-2-(2-(3-acetyl-5-(2-methylpyrimidin-5-yl)-1H-pyrazolo[3,4-c]pyridin-1-yl)acetyl)-5-((bis(2-hydroxyethyl)amino)methyl)-N-(6-bromo-3-methylpyridin-2-yl)-2-azabicyclo[3.1.0] hexane-3-carboxamide] |
| < 1 | CC(=O)c1nn(CC(=O)N2[C@H](C(=O)Nc3nc(Br)c(F)cc3C)C[C@@]3(CN(C)C)C[C@@H]23)c2cnc(-c3cnc(C)nc3)cc12 [Compound 264, (1R,3S,5R)-2-(2-(3-acetyl-5-(2-methylpyrimidin-5-yl)-1H-pyrazolo[3,4-c]pyridin-1-yl)acetyl)-N-(6-bromo-5-fluoro-3-methylpyridin-2-yl)-5-((dimethylamino)methyl)-2-azabicyclo[3.1.0] hexane-3-carboxamide] |
| < 1 | CC(=O)c1nn(CC(=O)N2[C@H](C(=O)Nc3nc(Br)c(F)cc3C)C[C@@]3(C)C[C@@H]23)c2c(C(F)(F)F)nc(-c3cnc(C)nc3)cc12 [Compound 271, (1R,3S,5R)-2-(2-(3-acetyl-5-(2-methylpyrimidin-5-yl)-7-(trifluoromethyl)-1H-pyrazolo[3,4-c]pyridin-1-yl)acetyl)-N-(6-bromo-5-fluoro-3-methylpyridin-2-yl)-5-methyl-2-azabicyclo[3.1.0]hexane-3-carboxamide] |

Same assay, conditions: Table 8; Factor D 80 nM, substrate Z-L-Lys-SBz; read-out: IC50

| Compound | IC50 [µM] |
| --- | --- |
| CC(=O)c1nn(CC(=O)N2[C@H](C(=O)Nc3nc(Br)ccc3C)C[C@@]3(C)C[C@@H]23)c2ccc(-c3cnc(CNC(=O)COCCOCCNC(=O)COCCOCCNC(=O)CC[C@H](NC(=O)CCCCCCCCCCCCCCCCC(=O)O)C(=O)O)nc3)cc12 [Compound 242] | < 1 |
| CC(=O)c1nn(CC(=O)N2C[C@@]3(CC(c4ccccc4)=NO3)C[C@H]2C(=O)Nc2nc(Br)ccc2C)c2c(C)cc(-c3cnc(C)nc3)cc12 [Compound 243, (5S,8S)-7-(2-(3-acetyl-7-methyl-5-(2-methylpyrimidin-5-yl)-1H-indazol-1-yl)acetyl)-N-(6-bromo-3-methylpyridin-2-yl)-3-phenyl-1-oxa-2,7-diazaspiro[4.4]non-2-ene-8-carboxamide] | 1 to 10 |
| CC(=O)c1nn(CC(=O)N2CC3(CC(C4CCCCC4)=NO3)C[C@H]2C(=O)Nc2nc(Br)ccc2C)c2c(C)cc(-c3cnc(C)nc3)cc12 (stereo partly drawn) [Compound 244, (8S)-7-(2-(3-acetyl-7-methyl-5-(2-methylpyrimidin-5-yl)-1H-indazol-1-yl)acetyl)-N-(6-bromo-3-methylpyridin-2-yl)-3-cyclohexyl-1-oxa-2,7-diazaspiro[4.4]non-2-ene-8-carboxamide] | < 1 |
| C=CCCCC(=O)NC[C@@]12C[C@@H](C(=O)Nc3nc(Br)ccc3C)N(C(=O)Cn3nc(C(C)=O)c4cc(-c5cnc(C)nc5)cc(CCC=C)c43)[C@@H]1C2 [Compound 266, (1R,3S,5R)-2-(2-(3-acetyl-7-(but-3-en-l-yl)-5-(2-methylpyrimidin-5-yl)-1H-indazol-1-yl)acetyl)-N-(6-bromo-3-methylpyridin-2-yl)-5-(hex-5-enamidomethyl)-2-azabicyclo[3.1.0]hexane-3-carboxamide] | < 1 |
